Assay results taken from patent publication US20210388012A1, “METHODS AND COMPOSITIONS FOR PRODRUG FORMS OF SPECTINOMYCIN AND SPECTINAMIDE ANALOGS” (priority 2018, published 2021).
≈ marks a conversion by molar mass, not a printed value. Like-named read-outs stand apart in the source and are kept apart here.

What was measured:
[1] = Single ascending maximum tolerated dose study in rat; assay type: in vivo; details: female, Sprague-Dawley, rat, in vivo, iv
Description: Several compounds were assessed in single ascending maximum tolerated studies. The compounds assessed were 1810; 3408, a prodrug form of compound 1810; 1599, a chloro homologue of compound 1810; and gentamicin, an antimicrobial associated with ototoxicity. The study was carried out in female Sprague-Dawley rats (n=3 per group). All the drug solutions were prepared in water and PLASMA-LYTE A (50:50; […] was obtained from Baxter Healthcare Corporation, Deerfield, Ill.). Each group of rats were fasted overnight with access to water aJ libitum and a fixed volume (2 mL) of drug-containing solution was administered via the jugular vein catheter. Food was withheld for 3 h post dosing. Different phases of the study were classified on five different speeds of i.v, administration; Phase 1: 5 sec, Phase 2: 30 sec, Phase 3: 5 min, Phase 4: 15 min, Phase 5: 30 min. In the first and second phases, a set of predefined dose levels: 10, 25, 50, 75, 100, 150, 300, 350, 400, 450 and 500 mg/kg. Escalation to the next higher dose was conditional upon absence of signs of acute toxicity following the immediate lower dose over a 24 h period. All animals were monitored by visual inspection focused on focus on changes in skin, fur, eyes, and also respiratory, circulatory, autonomic and central nervous systems, along with somatomotor activity and behavior pattern, including tremors, convulsions, salivation, diarrhea, lethargy, sleep and coma. A dose level was deemed an MTD if […] of acute toxicity were observed and that dose was chosen for the second phase of the study where the process was repeated to determine a toxic dose. For third, fourth and fifth phases, dosing solution was infused by a Instech tethering system (Instech Laboratories Inc., Plymouth Meeting, Pa.) where the animal is freely moving within its cage, the catheter connection is held in place by a vascular access harness and a swivel system, and the drug administration is performed via a Harvard Apparatus programmable syringe pump. After dosing, the tether was removed immediately after completion of the infusion and the catheter was flushed with (100 μL) PlasmaLyte A. Surviving animals from the previous dose with no signs of toxicity were re-used in either phases of these studies upon allowing a one day drug washout period.

M. tuberculosis H37Rv = test: Minimum inhibitory concentration (MIC), microbroth dilution; assay type: cell-based; details: Mycobacterium tuberculosis, 168 h; M. tuberculosis H37Rv, 7 days, 37° C.; read-out: MIC (H37Rv)
[2] = Pharmacokinetic study in rat; assay type: in vivo, Sprague-Dawley rats; details: male, Sprague-Dawley, in vivo, iv, 10 mg/kg
Description: LC-MS Method 1. Quantitative determination of the amount of a disclosed compound present in blood, plasma, or urinary can be determined by LC-MS/MS methods. Briefly, a suitable method involves use of calibrants (0.976, 1.95, 3.91, 7.81, 15.63, 31.25, 62.5, 125, 250, 500, 1000 ng/mL) were in sample matrix (e.g., rat plasma, blood or urine). A separate solution of disclosed compound (independent of calibrants) is used to prepare quality controls. Appropriate volumes of working solutions are added to the sample matrix to yield the final concentrations of 1, 50, 1000 ng/mL. Linearity for calibrants in duplicate is assessed by subjecting the spiked concentrations and the respective peak areas to least-square linear regression analysis with and without intercepts, and a weighted least-square regression (1/x or 1/x^2). The lowest limit of quantitation (LLOQ) in the standard curve measured with acceptable accuracy and precision for a disclosed compound from rat plasma has been previously established as 0.976 ng/mL for a representative compound, 1810. All samples are precipitated by the addition of 4-volumes (100 μL) of IS, 1369 (10 ng/mL) in methanol to a volume (25 μL) of plasma/urine test sample. The samples are vortexed (Fisher scientific, USA) for 30 sec and centrifuged at 10,000×g for 10 min at 4° C. and the supernatants are collected for LC-MS/MS analysis. Chromatographic separation is carried out using a Shimadzu Nexera XR (LC-20ADXR) liquid chromatograph (Shimadzu Corporation, USA) consisting of two pumps, online degasser, system controller and an auto sampler. Mobile phase consisting of a) water with 1.6% nonafluoropentanoic acid and 0.7% formic acid b) 90% acetonitrile with 0.8% nonafluoropentanoic acid and 0.35% formic acid can be used at a flow rate of 0.5 rnLirnin in gradient mode. A Waters® Symmetry ® 3.5μ C8, 50×2.1 mm column (Waters, Milford, Mass.) is used for the separation. Samples (5 μL) are injected on column and the eluate is provided directly to an API 5500 triple quadruple mass spectrometer (Applied Biosystems, Foster City, Calif.) equipped with a turbospray ion source operated in the positive ion mode. The optimized multiple reactions monitoring (MRM) conditions for 3408 (549.2A207.1), 1810 (469.2^207.1) and IS (418.3^207.1) are monitored with a declustering potential of 45 V and collision energy of 25 eV. Data are acquired and processed with Analyst software version 1.6.2 (Applied Biosystems, Foster City, Calif.).
Pharmacokinetic assessment of the disclosed compounds can be determined in a rat model as described herein. Briefly, catheterized male Sprague-Dawley rats from Harlan Bioscience (Indianapolis, Ind.), weighing 200-250 g, are kept at a 12 h light/dark cycle with access to food and water ad libitum. The procedures are approved by the Institutional Animal Care and Use Committee of the University of Tennessee Health Science Center. Formulations of a disclosed compound are prepared in water (50%) and PlasniaLyte A (50%). Test compound can be administered either via intravenous route (10 mg/kg) via femoral vein catheter with the study conducted using a group of 6 rats. Blood (250 μL) was collected via the jugular vein catheter at 0.08, 0.25, 0.5, 0.75, 1, 1.5, 2, 4, 6, 8, 10, 24 and 48 h after drug administration. Plasma was immediately separated by centrifugation (6,000×g for 10 min at 4° C.) and stored at −70° C. until analysis. The plasma concentration was determined as described herein above in LC-MS Method 1, and plasma concentration-time courses were fitted to a non-compartmental model using Phoenix WinNonlin 7.0 (Certara L. P., Princeton, NJ). Area under the concentration-time profile curve (AUC) was calculated by the log trapezoidal rule by log-linear regression and extrapolated to infinity by addition of the value Ct/λZ, where Ct is the concentration at the last time point, and λZ the terminal slope (determined by linear regression) of the log concentration-time curve. […]

[3] = target: Mycobacterium smegmatis 70S bacterial ribosomes; test: Ribosomal inhibition assay (luciferase-based protein synthesis inhibition); assay type: biochemical; details: purified M. smegmatis 70S ribosomes, firefly luciferase mRNA
Description: In vitro activity was also assessed using a ribosomal inhibition assay. Briefly, luciferase-based protein synthesis inhibition assays were performed in translation reaction as described previously (Bruell, et al. Biochemistry. 2008 47 (34), 8828-8839), using purified Mycobacterium smegmatis 70S bacterial ribosomes and firefly luciferase mRNA prepared in vitro using T7 RNA polymerase. IC50 values represent the drug concentration that inhibits luciferase activity by 50%.

[4] = tested on: M. tuberculosis Erdman (TMCC107); test: Murine model of acute TB infection; assay type: in vivo; details: BALB/c mice, subcutaneous injection 400 mg/kg daily, 12 consecutive days

## CN[C@@H]1[C@H](O)[C@H](NC)[C@H]2O[C@]3(O)[C@H](O[C@@H]2[C@H]1O)O[C@H](C)C[C@H]3NC(=O)Cc1ccc(O)cn1 [Compound 1810, 2-(5-hydroxypyridin-2-yl)-N-((2R,4R,4aS,5aR,6S,7S,8R,9S,9aR,10aS)-4a,7,9-trihydroxy-2-methyl-6,8-bis(methylamino)decahydro-2H-benzo[b]pyrano[2,3-e] [1,4]dioxin-4-yl)acetamide]
[1]
  MTD at 24 h: 200 to 350 mg/kg
[1]; female Sprague-Dawley rats, 5 second IV bolus, read-out: MTD
  MTD at 24 h: 200 mg/kg
[1]; female Sprague-Dawley rats, 30 second IV bolus, read-out: MTD
  MTD at 24 h: 200 mg/kg
[1]; female Sprague-Dawley rats, 5 minute IV infusion, read-out: MTD
  MTD at 24 h: 350 mg/kg
[1]; female Sprague-Dawley rats, 15 minute IV infusion, read-out: MTD
  MTD at 24 h: > 500 mg/kg
M. tuberculosis H37Rv
  MIC: 0.8 µg/mL (≈ 1.71 µM)
[2]
  AUC: 22000 ng·h/mL
  CL: 7.72 mL/min/kg
  Cmax: 47000 ng/mL
  Vss: 0.494 L/kg
  t½: 23.5 min
[3]
  IC50 (M. smegmatis): 0.84 µg/mL (≈ 1.79 µM)
[4]
  Efficacy in mouse model of acute tuberculosis infection (lung CFU, FIG. 1): similarly active
